Laboratory results taken from patent publication US12171230B2, “Herbicidal compositions” (Bayer Aktiengesellschaft, priority 2018, dated 2024).

Legend:
Format in all cases: in vivo
Brachiaria decumbens = assay: Post-emergence herbicidal action against Brachiaria decumbens; conditions: g of a.i./ha: 200, 100, 100 + 200
Text: (§1) The following abbreviations are used in the description and the tables that follow: • g of a.i./ha=grams of active substance (active ingredient) (=100% active compound) per hectare; • The sum total of the effects of the individual applications is reported under E^A; • expected values according to Colby are each reported under E^C.
(§2) The rating period is reported in days after application (DAT).

Poa annua = assay: Post-emergence herbicidal action against Poa annua
How it was run: (§3)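 Weeds sown in sandy loam pots in greenhouse; treated post-emergence at three-leaf stage (three weeks after sowing) by spraying formulated compositions at various dosages in 300 to 800 l/ha water. Visual scoring versus untreated controls after about 3 to 4 weeks; synergism judged against Colby expected values.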

Alopecurus myosuroides = assay: Post-emergence herbicidal action against Alopecurus myosuroides
How it was run: (§4)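 Colby-derived expected values (E^C) and the summed effects of the separate applications (E^A) accompany each rating. Active substance was dosed in grams per hectare on a 100% active-compound basis, with the rating period given as DAT.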

Digitaria sanguinalis = assay: Post-emergence herbicidal action against Digitaria sanguinalis; conditions: (Z61) post-emergence; g of a.i./ha: 180, 100, 100 + 180
How it was run: as §3

Chenopodium album = assay: Post-emergence herbicidal action against Chenopodium album; conditions: g of a.i./ha: 180, 100, 100 + 180
Procedure: When the observed efficacies exceed the formal sum total of the values of the tests with individual applications, they also exceed the expected value according to Colby, which is calculated using the formula below and is likewise regarded as an indication of synergism (cf. S. R. Colby; in Weeds 15 (1967) p. 20 to 22): E^C=A+B−([…])
Here: • A=efficacy of the active compound (A) in % at an application rate of a g a.i./ha; • B=efficacy of the active compound (B) in % at an application rate of b g a.i./ha; • E^C=expected value of the effect of the combination (A)+(B) in % at the combined application rate a+b g a.i./ha.
Seeds or rhizome pieces of mono- and dicotyledonous weeds are placed in sandy loam in pots, covered with soil and grown in a greenhouse under good growth conditions (temperature, air humidity, water supply). Three weeks after sowing, the test plants were treated at the three-leaf stage with the compositions according to the invention. The compositions according to the invention formulated as spray powders or as emulsion concentrates were sprayed onto the green plant parts in various dosages with an application rate of 300 to 800 l/ha of water (equivalent). After the test plants have been left to stand in the greenhouse under optimal growth conditions for about 3 to 4 weeks, the action of the preparations is scored visually in comparison to untreated controls. The compositions according to the invention also have good post-emergence herbicidal activity against a broad spectrum of economically important gramineous and broadleaf weeds.

Lamium purpureum = assay: Post-emergence herbicidal action against Lamium purpureum
How it was run: as §3

Bromus sterilis = assay: Post-emergence herbicidal action against Bromus sterilis
How it was run: as §4

Abutilon theophrasti = assay: Post-emergence herbicidal action against Abutilon theophrasti; conditions: g of a.i./ha: 90, 30, 15, 15 + 90, 15 + 30
How it was run: as §4

[1] = system: Lolium rigidum (resistant biotype); assay: Post-emergence herbicidal action against Lolium rigidum (resistant biotype)
How it was run: as §4

Brachiaria plantaginea = assay: Post-emergence herbicidal action against Brachiaria plantaginea; conditions: (Z61) post-emergence; g of a.i./ha: 200, 100, 100 + 200
Text: as §1, §2

Veronica hederifolia = assay: Post-emergence herbicidal action against Veronica hederifolia; conditions: g of a.i./ha: 16, 270, 16 + 270
How it was run: as §4

Digitaria horizontalis = assay: Post-emergence herbicidal action against Digitaria horizontalis; conditions: (Z61) post-emergence; g of a.i./ha: 200, 100, 100 + 200
Text: as §1, §2

Echinochloa crus-galli = assay: Post-emergence herbicidal action against Echinochloa crus-galli; conditions: 21 DAT; 30 g of a.i./ha
How it was run: as §3

Galium aparine = assay: Post-emergence herbicidal action against Galium aparine
How it was run: as §3

Bidens pilosa = assay: Post-emergence herbicidal action against Bidens pilosa; conditions: for Herbicidal action against Bidens pilosa: 21 DAT
How it was run: as §3

Lolium rigidum = assay: Post-emergence herbicidal action against Lolium rigidum
How it was run: as §4

Kochia scoparia = assay: Post-emergence herbicidal action against Kochia scoparia; conditions: g of a.i./ha by row: 30, 5, 5 + 30
Text: as §1, §2

Setaria viridis = assay: Post-emergence herbicidal action against Setaria viridis; conditions: 21 DAT
How it was run: as §3

[2] = (Z61) post-emergence, g of a.i./ha: 4, 1, 270, 90, 4 + 270, 4 + 90, 1 + 270, 1 + 90, 90 g of a.i./ha
[3] = (Z61) post-emergence, g of a.i./ha: 4, 1, 270, 90, 4 + 270, 4 + 90, 1 + 270, 1 + 90, 270 g of a.i./ha
[4] = (Z61) post-emergence, g of a.i./ha by row: 4, 1, 270, 90, 4 + 270, 1 + 270, 1 + 90, 90 g of a.i./ha
[5] = (Z61) post-emergence, g of a.i./ha by row: 4, 1, 270, 90, 4 + 270, 1 + 270, 1 + 90, 270 g of a.i./ha
[6] = (Z119) post-emergence, g of a.i./ha: 1, 270, 1 + 270

O=C(Nc1ccc(F)cc1F)c1cccnc1Oc1cccc(C(F)(F)F)c1 [(B2.18) Diflufenican]
0%: Herbicidal action 28 DAT against Brachiaria decumbens (Brachiaria decumbens) | Herbicidal action 28 DAT against Poa annua L. (Poa annua; 30 g of a.i./ha) | Herbicidal action 28 DAT against Poa annua L. (Poa annua; 90 g of a.i./ha) | Herbicidal action 28 DAT against Poa annua L. (Poa annua; 270 g of a.i./ha) | Herbicidal action 28 DAT against Poa annua L. (Poa annua; (Z119) post-emergence, g of a.i./ha: 16, 1, 270, 90, 30, 16 + 270, 16 + 90, 16 + 30, 1 + 270) | Herbicidal action 28 DAT against Alopecurus myosuroides (Alopecurus myosuroides; (Z119) post-emergence, g of a.i./ha by row: 16, 1, 270, 90, 30, 16 + 270, 16 + 90, 16 + 30, 1 + 270, 1 + 90) | Herbicidal action 37 DAT against Digitaria sanguinalis (Digitaria sanguinalis) | Herbicidal action 28 DAT against Bromus sterilis (Bromus sterilis; [6]) | Herbicidal action 28 DAT against Bromus sterilis (Bromus sterilis; (Z148) post-emergence, g of a.i./ha: 1, 270, 90, 30, 1 + 270, 1 + 90, 1 + 30) | Herbicidal action 14 DAT against Bromus sterilis (Bromus sterilis; (Z148) post-emergence, g of a.i./ha: 4, 1, 270, 90, 30, 4 + 270, 4 + 90, 4 + 30, 1 + 30, 30 g of a.i./ha) | Herbicidal action 28 DAT against Lolium rigidum (resistant biotype) ([1]; 30 g of a.i./ha) | Herbicidal action 28 DAT against Lolium rigidum (resistant biotype) ([1]; 90 g of a.i./ha) | Herbicidal action 28 DAT against Lolium rigidum (resistant biotype) ([1]; 270 g of a.i./ha) | Herbicidal action 14 DAT against Lolium rigidum (resistant biotype) [1, 4] | Herbicidal action 14 DAT against Lolium rigidum (resistant biotype) ([1]; (Z119) post-emergence, g of a.i./ha by row: 16, 1, 90, 30, 270, 16 + 90, 16 + 30, 1 + 270, 30 g of a.i./ha) | Herbicidal action 28 DAT against Lolium rigidum (resistant biotype) [1, 6] | Herbicidal action 28 DAT against Brachiaria plantaginea (Brachiaria plantaginea) | Herbicidal action 28 DAT against Digitaria horizontalis (Digitaria horizontalis) | Herbicidal action 28 DAT against Galium aparine (Galium aparine; 30 g of a.i./ha) | Herbicidal action 28 DAT against Galium aparine (Galium aparine; (Z119) post-emergence, g of a.i./ha: 16, 4, 30, 16 + 30, 4 + 30) | Herbicidal action 28 DAT against Lolium rigidum (Lolium rigidum; 90 g of a.i./ha) | Herbicidal action 28 DAT against Lolium rigidum (Lolium rigidum; 270 g of a.i./ha) | Herbicidal action 14 DAT against Lolium rigidum (Lolium rigidum; (Z61) post-emergence, g of a.i./ha: 1, 270, 90, 30, 1 + 270, 1 + 90, 1 + 30, 30 g of a.i./ha) | Herbicidal action 28 DAT against Lolium rigidum (Lolium rigidum; (Z119) post-emergence, g of a.i./ha: 16, 4, 1, 270, 90, 30, 16 + 270, 16 + 90, 16 + 30, 4 + 270, 4 + 90, 4 + 30, 1 + 270)
15%: Herbicidal action 28 DAT against Alopecurus myosuroides (Alopecurus myosuroides; (Z61) post-emergence, g of a.i./ha by row: 16, 4, 1, 270, 90, 16 + 270, 4 + 270, 4 + 90, 1 + 270, 1 + 90, 90 g of a.i./ha) | Herbicidal action 14 DAT against Alopecurus myosuroides (Alopecurus myosuroides; [2]) | Herbicidal action 14 DAT against Bromus sterilis (Bromus sterilis; [5]) | Herbicidal action 28 DAT against Bromus sterilis (Bromus sterilis; (Z61) post-emergence, g of a.i./ha: 1, 270, 90, 1 + 270, 1 + 90, 90 g of a.i./ha) | Herbicidal action 28 DAT against Lolium rigidum (Lolium rigidum; [2]) | Herbicidal action against Setaria viridis (Setaria viridis; 270 g of a.i./ha)
25%: Herbicidal action 21 DAT against Kochia scoparia (Kochia scoparia)
30%: Herbicidal action 14 DAT against Galium aparine (Galium aparine; (Z119) post-emergence, g of a.i./ha by row: 1, 30, 1 + 30)
5%: Herbicidal action 14 DAT against Bromus sterilis (Bromus sterilis; (Z119) post-emergence, g of a.i./ha: 1, 270, 90, 1 + 270, 1 + 90) | Herbicidal action 14 DAT against Bromus sterilis (Bromus sterilis; (Z148) post-emergence, g of a.i./ha: 4, 1, 270, 90, 30, 4 + 270, 4 + 90, 4 + 30, 1 + 30, 270 g of a.i./ha) | Herbicidal action 14 DAT against Lolium rigidum (resistant biotype) ([1]; (Z119) post-emergence, g of a.i./ha by row: 16, 1, 90, 30, 270, 16 + 90, 16 + 30, 1 + 270, 90 g of a.i./ha) | Herbicidal action 14 DAT against Lolium rigidum (Lolium rigidum; (Z119) post-emergence, g of a.i./ha by row: 16, 1, 90, 270, 16 + 90, 1 + 270)
35%: Herbicidal action against Bidens pilosa (Bidens pilosa; 90 g of a.i./ha)
10%: Herbicidal action 14 DAT against Alopecurus myosuroides (Alopecurus myosuroides; (Z119) post-emergence, g of a.i./ha: 16, 1, 270, 16 + 270, 1 + 270) | Herbicidal action 28 DAT against Lamium purpureum L. (Lamium purpureum; 30 g of a.i./ha) | Herbicidal action 14 DAT against Bromus sterilis (Bromus sterilis; [4]) | Herbicidal action 21 DAT against Abutilon theophrasti (Abutilon theophrasti) | Herbicidal action 14 DAT against Lolium rigidum (resistant biotype) [1, 5] | Herbicidal action 28 DAT against Lolium rigidum (resistant biotype) ([1]; (Z61) post-emergence, g of a.i./ha: 4, 1, 270, 90, 4 + 270, 1 + 90, 90 g of a.i./ha) | Herbicidal action against Echinochloa crus-galli (Echinochloa crus-galli) | Herbicidal action 21 DAT against Bidens pilosa (Bidens pilosa; post-emergence, g of a.i./ha: 90, 30, 15, 15 + 90, 15 + 30) | Herbicidal action 14 DAT against Lolium rigidum (Lolium rigidum; (Z61) post-emergence, g of a.i./ha: 1, 270, 90, 30, 1 + 270, 1 + 90, 1 + 30, 270 g of a.i./ha) | Herbicidal action against Setaria viridis (Setaria viridis; 30 g of a.i./ha) | Herbicidal action against Setaria viridis (Setaria viridis; 90 g of a.i./ha)
45%: Herbicidal action against Bidens pilosa (Bidens pilosa; 270 g of a.i./ha)
85%: Herbicidal action 14 DAT against Veronica hederifolia (Veronica hederifolia)
20%: Herbicidal action 14 DAT against Poa annua L. (Poa annua; (Z61) post-emergence, g of a.i./ha: 16, 1, 270, 90, 16 + 270, 16 + 90, 1 + 270, 1 + 90) | Herbicidal action 28 DAT against Alopecurus myosuroides (Alopecurus myosuroides; (Z61) post-emergence, g of a.i./ha by row: 16, 4, 1, 270, 90, 16 + 270, 4 + 270, 4 + 90, 1 + 270, 1 + 90, 270 g of a.i./ha) | Herbicidal action 14 DAT against Alopecurus myosuroides (Alopecurus myosuroides; [3]) | Herbicidal action 27 DAT against Chenopodium album (Chenopodium album) | Herbicidal action 14 DAT against Lamium purpureum L. (Lamium purpureum; 30 g of a.i./ha) | Herbicidal action 28 DAT against Lamium purpureum L. (Lamium purpureum; 90 g of a.i./ha) | Herbicidal action 28 DAT against Lamium purpureum L. (Lamium purpureum; (Z61) post-emergence, g of a.i./ha by row: 4, 1, 270, 30, 90, 4 + 270, 4 + 30, 1 + 270, 1 + 90, 1 + 30) | Herbicidal action 14 DAT against Lamium purpureum L. (Lamium purpureum; (Z119) post-emergence, g of a.i./ha by row: 16, 30, 16 + 30) | Herbicidal action 28 DAT against Bromus sterilis (Bromus sterilis; (Z61) post-emergence, g of a.i./ha: 1, 270, 90, 1 + 270, 1 + 90, 270 g of a.i./ha) | Herbicidal action 28 DAT against Lolium rigidum (resistant biotype) ([1]; (Z61) post-emergence, g of a.i./ha: 4, 1, 270, 90, 4 + 270, 1 + 90, 270 g of a.i./ha) | Herbicidal action 28 DAT against Galium aparine (Galium aparine; 90 g of a.i./ha) | Herbicidal action 28 DAT against Lolium rigidum (Lolium rigidum; [3])
